According to patent publication US10961215B2, “N-aryl and N-heteroaryl piperidine derivatives as liver X receptor beta agonists, compositions, and their use” (Merck Sharp & Dohme Corp., priority 2016, dated 2021):

What was measured:
[1] = target: T1, GST tagged LXRbeta LBD (ligand binding domain) (Homo sapiens, UniProt P55055); assay: LanthaScreen TR-FRET Liver X Receptor Coactivator Assay, LXR beta-LBD (co-activator recruitment; IP and % Emax relative to T0901317); type: biochemical; conditions: for EC50: Inflection Point of co-activator recruitment, LXR beta-LBD, TR-FRET; for Emax: efficacy at max dose in relation to reference T0901317, LXR beta-LBD, read-out: LXR beta actiivty at max dose (%)
T1 construct: purchased Invitrogen pv4658.pps
T1 sequence (P55055 222-460 limits assumed): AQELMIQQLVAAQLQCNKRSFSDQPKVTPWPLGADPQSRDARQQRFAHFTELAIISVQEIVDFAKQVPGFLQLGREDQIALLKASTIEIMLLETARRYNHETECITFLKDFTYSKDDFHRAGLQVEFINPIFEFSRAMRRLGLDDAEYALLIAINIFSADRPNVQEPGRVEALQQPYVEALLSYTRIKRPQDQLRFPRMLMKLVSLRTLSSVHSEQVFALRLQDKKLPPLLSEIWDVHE
Outline: (§1)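 Coactivator recruitment is scored against T0901317 as reference dual agonist, giving inflection-point potency and Emax. Compounds met the GST-LBD protein first, then a mix of terbium anti-GST antibody and fluorescein coactivator peptide. TR-FRET was measured after incubation at room temperature.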

[2] = target: T2, GST tagged LXRalpha LBD (ligand binding domain) (Homo sapiens, UniProt Q13133); assay: LanthaScreen TR-FRET Liver X Receptor Coactivator Assay, LXR alpha-LBD (co-activator recruitment; IP and % Emax relative to T0901317); type: biochemical; conditions: for LXR alpha IP (nM) / EC50: Inflection Point of co-activator recruitment, LXR alpha-LBD, TR-FRET; for Emax: read-out: LXR alpha actiivty at max dose (%)
T2 construct: purchased Invitrogen pv4655
T2 sequence (Q13133 209-447 limits assumed): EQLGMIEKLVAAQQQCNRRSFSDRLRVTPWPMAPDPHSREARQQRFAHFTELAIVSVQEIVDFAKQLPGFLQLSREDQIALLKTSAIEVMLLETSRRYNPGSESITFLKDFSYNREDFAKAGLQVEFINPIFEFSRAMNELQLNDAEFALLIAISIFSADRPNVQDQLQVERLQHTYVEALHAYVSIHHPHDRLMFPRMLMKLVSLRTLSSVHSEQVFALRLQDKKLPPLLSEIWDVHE
Outline: as §1

[3] = efficacy at max dose in relation to reference T0901317, LXR alpha-LBD

SMILES | EC50 [1] [nM] | Emax [1] [%] | LXR alpha IP (nM) [2] | Emax [2, 3] [%] | EC50 [2] [nM] | LXR alpha actiivty at max dose (%) [2, 3] [%]
COc1cccc([C@@](O)(C(=O)Nc2cccc(C3CCN(c4ccc(C(=O)N(C)C)c(Cl)n4)CC3)c2)C(F)(F)F)c1 [Example 10-4, (R)-2-chloro-N,N-dimethyl-6-(4-(3-(3,3,3-trifluoro-2-hydroxy-2-(3-methoxyphenyl)propanamido)phenyl)piperidin-1-yl)nicotinamide] | 649 | 49 | No IP | 0 |  | 
CN(C)C(=O)c1ccc(N2CCC([C@@H]3C[C@H]3CNC(=O)[C@@](O)(c3ccccc3)C(F)(F)F)CC2)cc1Cl [Example 15-17, 2-chloro-N,N-dimethyl-4-(4-((1S,2R)-2-(((S)-3,3,3-trifluoro-2-hydroxy-2-phenylpropanamido)methyl)cyclopropyl)piperidin-1-yl)benzamide] | 505 | 79 | No IP |  |  | 0
CC(C)[C@@]1(C(=O)N(C)CCCC2CCN(c3ccc(C(=O)N(C)C)c(Cl)n3)CC2)CCCO1 [Example 1-18, (R)-2-chloro-6-(4-(3-(2-isopropyl-N-methyl-tetrahydrofuran-2-ycarboxamido)propyl)piperidin-1-yl)-N,N-dimethylnicotinamide] | 564 | 41 | No IP | 13 |  | 
COc1cccc([C@@](O)(C(=O)N(C)CC[C@@H]2CC23CCN(c2ccc(C(=O)N(C)C)c(Cl)c2)CC3)C(F)(F)F)c1 [Example 7-22, 2-chloro-N,N-dimethyl-4-((S)-1-(2-((R)-3,3,3-trifluoro-2-hydroxy-2-(3-methoxyphenyl)-N-methylpropanamido)ethyl)-6-azaspiro[2.5]octan-6-yl)benzamide] | 572 | 43 | No IP | 3 |  | 
COc1cccc([C@@](O)(C(=O)NC2CC(CC3CCN(c4ccc(C(=O)N(C)C)c(Cl)c4)CC3)C2)C(F)(F)F)c1 (stereo partly drawn) [Example 11-6, (R)-2-chloro-N,N-dimethyl-4-(4-((3-(3,3,3-trifluoro-2-hydroxy-2-(3-methoxyphenyl)propanamido)cyclobutyl)methyl)piperidin-1-yl)benzamide] | 561 | 54 | No IP | 3 |  | 

These reach a lower EC50 [1]. Values come first.

EC50 [1] [nM] | Emax [1] [%] | LXR alpha IP (nM) [2] | Emax [2, 3] [%] | EC50 [2] [nM] | LXR alpha actiivty at max dose (%) [2, 3] [%] | SMILES
14 | 55 |  | 32 | 158 |  | CC(C)N(C)C(=O)c1ccc(N2CCC3(CC2)C[C@@H]3CCN(C)C(=O)[C@](O)(c2ccccc2)C(F)(F)F)cc1Cl [Example 7-13, 2-chloro-N-isopropyl-N-methyl-4-((R)-1-(2-((R)-3,3,3-trifluoro-2-hydroxy-N-methyl-2-phenylpropanamido)ethyl)-6-azaspiro[2.5]octan-6-yl)benzamide]
373 | 49 | No IP | 6 |  |  | COc1cccc([C@@](O)(C(=O)N(C)CC(F)CC2CCN(c3ccc(C(=O)N(C)C)c(Cl)n3)CC2)C(F)(F)F)c1 (stereo partly drawn) [Example 3-3, 2-chloro-6-(4-(2-fluoro-3-((R)-3,3,3-trifluoro-2-hydroxy-2-(3-methoxyphenyl)-N-methylpropanamido)propyl)piperidin-1-yl)-N,N-dimethylnicotinamide]
14 | 73 |  | 44 | 534 |  | CN(C)C(=O)c1ccc(N2CCC3(CC2)CC3CCN(C)C(=O)[C@](O)(c2ccccc2)C(F)(F)F)cc1Cl (stereo partly drawn) [Example 7-2, 2-chloro-N,N-dimethyl-4-(1-(2-((R)-3,3,3-trifluoro-2-hydroxy-N-methyl-2-phenylpropanamido)ethyl)-6-azaspiro[2.5]octan-6-yl)benzamide]
380 | 118 |  | 27 | 1670 |  | CN(C)C(=O)c1ccc(N2CCC(CCCNC(=O)C(O)(c3ccccc3)C(F)(F)C(F)(F)F)CC2)cc1Cl (stereo not drawn) [Example 5-3, 2-chloro-N,N-dimethyl-4-(4-(3-(3,3,4,4,4-pentafluoro-2-hydroxy-2-phenyl-butanamido)propyl)piperidin-1-yl)benzamide]
17 | 58 | No IP | 10 |  |  | COc1cccc([C@@](O)(C(=O)N(C)C[C@@H]2C[C@@H]2C2CCN(c3ccc(C(=O)N(C)C)c(Cl)n3)CC2)C(F)(F)F)c1 [Example 15-3, 2-chloro-N,N-dimethyl-6-(4-((1R,2R)-2-(((R)-3,3,3-trifluoro-2-hydroxy-2-(3-methoxyphenyl)-N-methylpropanamido)methyl)cyclopropyl)piperidin-1-yl)nicotinamide]
142 | 49 | No IP | 1 |  |  | CNC(=O)c1ccc(N2CCC3(CC2)CC(CCN(C)C(=O)[C@](O)(c2cccc(OC)c2)C(F)(F)F)C3)nc1Cl [Example 13-2, 2-chloro-N-methyl-6-(2-(2-((R)-3,3,3-trifluoro-2-hydroxy-2-(3-methoxyphenyl)-N-methylpropanamido)ethyl)-7-azaspiro[3.5]nonan-7-yl)nicotinamide]
10 | 64 |  | 25 | 289 |  | CN(C)C(=O)c1ccc(N2CCC([C@H]3C[C@H]3CN(C)C(=O)[C@](O)(c3ccccc3)C(F)(F)F)CC2)nc1Cl [Example 15-2, 2-chloro-N,N-dimethyl-6-(4-((1R,2R)-2-(((R)-3,3,3-trifluroo-2-hydroxy-N-methyl-2-phenylpropanamido)methyl)cyclopropyl)piperidin-1-yl)nicotinamide]
